Reference: the supplement of paper PMC10627819

Key:
S. pneumoniae D39V [1] = assay: fitness (endpoint OD595 vs no drug) (fraction); higher = more growth
In short: (§1)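 Bacterial fitness was scored as optical density at the stationary-phase transition relative to the robust mean of no-drug control wells. Scores are capped at 1. The growth data were OD595 readings every 30 min for 14 h at 37 °C, background-subtracted against the first reading, from 384-well plates inoculated at OD595 0.01 in TSB, LB Lennox or CY.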

B. subtilis 168 [2] = assay: as above
In short: as §1

S. pneumoniae D39V [3] = assay: Bliss interaction score (quartile over a dose matrix) (fitness difference); higher = more antagonism (negative = synergy)
In short: (§2)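 The Bliss score is observed fitness minus expected fitness, where the expected value is the product of single-drug fitness values inferred from combination data. Fitness is OD595 at entry into stationary phase normalised to the plate's robust no-drug mean and capped at 1. Scores are reported as quartiles spanning technical, biological and donor/recipient replicates.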

S. aureus DSM 20231 = assay: as above
In short: as §2

B. subtilis 168 [4] = assay: as above
In short: as §2

S. aureus Newman = assay: as above
In short: as §2
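For Bliss interaction score (quartile over a dose matrix) in this document: first quartile when negative (synergy) and third quartile when positive (antagonism).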
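For fitness (endpoint OD595 vs no drug) in this document: OD595 on entry to stationary phase over no-drug wells; at most 1.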

C[C@H]1c2cccc(O)c2C(=O)C2=C(O)[C@]3(O)C(=O)C(C(N)=O)=C(O)[C@@H](N(C)C)[C@@H]3[C@@H](O)[C@@H]21 [Doxycycline] + CN(C)C(=O)C(CCN1CCC(O)(c2ccc(Cl)cc2)CC1)(c1ccccc1)c1ccccc1 [Loperamide]
fitness, S. pneumoniae D39V [1], one replicate
Settings | first compound 0.003875 µg/mL | first compound 0.00775 µg/mL | first compound 0.0155 µg/mL | first compound 0.031 µg/mL | first compound 0.062 µg/mL
partner 20 µg/mL | ≥ 1 | ≥ 1 | – | 0.976 | 0.836
partner 40 µg/mL | ≥ 1 | ≥ 1 | – | 0.942 | 0.826
partner 68.57 µg/mL | – | – | 0.858 | 0.875 | 0.966
partner 80 µg/mL | ≥ 1 | ≥ 1 | – | 0.973 | 0.764

Settings | fitness
B. subtilis 168 [2], first compound 0.02 µg/mL, partner 25 µg/mL | 0.544
B. subtilis 168 [2], first compound 0.02 µg/mL, partner 50 µg/mL | 0.0585
B. subtilis 168 [2], first compound 0.02 µg/mL, partner 100 µg/mL | 0.0358
B. subtilis 168 [2], first compound 0.04 µg/mL, partner 25 µg/mL | 0.0527
B. subtilis 168 [2], first compound 0.04 µg/mL, partner 50 µg/mL | 0.0434
B. subtilis 168 [2], first compound 0.04 µg/mL, partner 100 µg/mL | 0.0354
B. subtilis 168 [2], first compound 0.08 µg/mL, partner 25 µg/mL | 0.0276
B. subtilis 168 [2], first compound 0.08 µg/mL, partner 50 µg/mL | 0.0338
B. subtilis 168 [2], first compound 0.08 µg/mL, partner 100 µg/mL | 0.0354
S. pneumoniae D39V [1], first compound 0.0155 µg/mL, partner 17.14 µg/mL | 0.874
S. pneumoniae D39V [1], first compound 0.0155 µg/mL, partner 20 µg/mL | ≥ 1
S. pneumoniae D39V [1], first compound 0.0155 µg/mL, partner 34.28 µg/mL | 0.861
S. pneumoniae D39V [1], first compound 0.0155 µg/mL, partner 40 µg/mL | ≥ 1
S. pneumoniae D39V [1], first compound 0.0155 µg/mL, partner 80 µg/mL | ≥ 1
S. pneumoniae D39V [1], first compound 0.031 µg/mL, partner 17.14 µg/mL | 0.939
S. pneumoniae D39V [1], first compound 0.031 µg/mL, partner 34.28 µg/mL | 0.932
S. pneumoniae D39V [1], first compound 0.062 µg/mL, partner 17.14 µg/mL | 0.864
S. pneumoniae D39V [1], first compound 0.062 µg/mL, partner 34.28 µg/mL | 0.895

Settings | Bliss interaction score
B. subtilis 168 [4] | -0.189
S. aureus DSM 20231 | 0.107
S. aureus Newman | 0.0172
S. pneumoniae D39V [3] | 0.193

C[C@H]1c2cccc(O)c2C(=O)C2=C(O)[C@]3(O)C(=O)C(C(N)=O)=C(O)[C@@H](N(C)C)[C@@H]3[C@@H](O)[C@@H]21 [Doxycycline] + CN(N=O)C(=O)N[C@@H](C=O)[C@@H](O)[C@H](O)[C@H](O)CO [Streptozotocin]
fitness, S. pneumoniae D39V [1], one replicate
Settings | partner 1.2 µg/mL | partner 2.4 µg/mL | partner 4.8 µg/mL
first compound 0.003875 µg/mL | 0.989 | 0.971 | 0.984
first compound 0.00775 µg/mL | 0.926 | 0.913 | 0.933

Settings | fitness
B. subtilis 168 [2], first compound 0.02 µg/mL, partner 0.15 µg/mL | 0.917
B. subtilis 168 [2], first compound 0.02 µg/mL, partner 0.3 µg/mL | 0.97
B. subtilis 168 [2], first compound 0.02 µg/mL, partner 0.6 µg/mL | 0.901
B. subtilis 168 [2], first compound 0.04 µg/mL, partner 0.15 µg/mL | 0.773
B. subtilis 168 [2], first compound 0.04 µg/mL, partner 0.3 µg/mL | 0.789
B. subtilis 168 [2], first compound 0.04 µg/mL, partner 0.6 µg/mL | 0.786
B. subtilis 168 [2], first compound 0.08 µg/mL, partner 0.3 µg/mL | 0.538
B. subtilis 168 [2], first compound 0.08 µg/mL, partner 0.6 µg/mL | 0.531
S. pneumoniae D39V [1], first compound 0.0155 µg/mL, partner 1.2 µg/mL | 0.919
S. pneumoniae D39V [1], first compound 0.0155 µg/mL, partner 2.4 µg/mL | 0.896
S. pneumoniae D39V [1], first compound 0.0155 µg/mL, partner 4.8 µg/mL | 0.914
S. pneumoniae D39V [1], first compound 0.031 µg/mL, partner 1.2 µg/mL | 0.837
S. pneumoniae D39V [1], first compound 0.031 µg/mL, partner 2.4 µg/mL | 0.847
S. pneumoniae D39V [1], first compound 0.031 µg/mL, partner 4.8 µg/mL | 0.822
S. pneumoniae D39V [1], first compound 0.062 µg/mL, partner 1.2 µg/mL | 0.754
S. pneumoniae D39V [1], first compound 0.062 µg/mL, partner 2.4 µg/mL | 0.761
S. pneumoniae D39V [1], first compound 0.062 µg/mL, partner 4.8 µg/mL | 0.71

Settings | Bliss interaction score
B. subtilis 168 [4] | 0.0094
S. aureus DSM 20231 | 0.0373
S. aureus Newman | 0.0413
S. pneumoniae D39V [3] | -0.0474
